According to patent publication US20120016009A1, “Optimized Methods For Delivery Of DSRNA Targeting The PCSK9 Gene” (priority 2008, published 2012):
In the oligonucleotide strings, read from the 5' end, every base follows the letter of its sugar. An asterisk marks phosphorothioate; unmarked linkages are phosphodiester. Other units and linkages are bracketed, terminal groups are in braces. A string of capitals states the bases alone. d = 2'-deoxy (DNA); m = 2'-O-methyl; r = 2'-OH (RNA)

Tested on: PCSK9 mRNA
Assay: PCSK9 siRNA screening in HepG2 cells (lipofectamine 2000 transfection, PCSK9 mRNA by Quantigene, normalized to GAP-DH)
Format: cell-based, human
Conditions: for Mean percent remaining mRNA transcript at siRNA concentration/in cell type 30 nM/HepG2: 30 nM siRNA; for Mean percent remaining mRNA transcript at siRNA concentration/in cell type 100 nM/HepG2: 100 nM siRNA; for Mean percent remaining mRNA transcript at siRNA concentration/in cell type 3 nM/HepG2: 3 nM siRNA
Procedure, shortened: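 HepG2 cells, grown in MEM with 10% fetal calf serum, antibiotics, non-essential amino acids and sodium pyruvate at 37° C. and 5% CO2, were plated at 2.0×10^4 cells/well in 96-well plates and transfected directly with siRNA using lipofectamine 2000. After 24 hours, cells were lysed and PCSK9 mRNA was measured by Quantigene and normalized to GAP-DH mRNA.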

AD-9757: PCSK9 siRNA (sense mCmUmCmUrGmCmCrArArArGrAmUrGmUmCrAmUmCdT*dT; antisense rGrArUrGrAmCrArUrCrUrUrUrGrGmCrArGrArGdT*dT)
Mean percent remaining mRNA transcript at siRNA concentration/in cell type 30 nM/HepG2: 78%

AD-9578: PCSK9 siRNA (sense rCrArUrUrUrArUrCrUrUrUrUrGrGrGrUrCrUrGdT*dT; antisense rCrArGrArCrCrCrArArArArGrArUrArArArUrGdT*dT)
Mean percent remaining mRNA transcript at siRNA concentration/in cell type 30 nM/HepG2: 61%
Mean percent remaining mRNA transcript at siRNA concentration/in cell type 100 nM/HepG2: 49%

AD-9704: PCSK9 siRNA (sense mCrAmUmUmUrAmUmCmUmUmUmUrGrGrGmUmCmUrGdT*dT; antisense mCrArGrArCrCmCrArArArArGrAmUrArArArUrGdT*dT)
Mean percent remaining mRNA transcript at siRNA concentration/in cell type 30 nM/HepG2: 111%

AD-9687: PCSK9 siRNA (sense rGrAmCrAmCmCrArGmCrAmUrAmCrArGrArGmUrGdT*dT; antisense mCrArCrUrCrUrGmUrArUrGrCrUrGrGrUrGrUrCdT*dT)
Mean percent remaining mRNA transcript at siRNA concentration/in cell type 30 nM/HepG2: 84%

AD-9667: PCSK9 siRNA (sense rGrGmUrGrArGrGrGmUrGmUmCmUrAmCrGmCmCrAdT*dT; antisense rUrGrGrCrGmUrArGrAmCrArCrCrCrUmCrArCrCdT*dT)
Mean percent remaining mRNA transcript at siRNA concentration/in cell type 30 nM/HepG2: 73%

AD-9638: PCSK9 siRNA (sense rCrUrGrGrArGrUrUrUrArUrUrCrGrGrArArArAdT*dT; antisense rUrUrUrUrCrCrGrArArUrArArArCrUrCrCrArGdT*dT)
Mean percent remaining mRNA transcript at siRNA concentration/in cell type 30 nM/HepG2: 101%

AD-9753: PCSK9 siRNA (sense rArGrArGrAmCmUrGrAmUmCmCrAmCmUmUmCmUmCdT*dT; antisense rGrArGrArArGrUrGrGrArUmCrArGrUrCrUrCrUdT*dT)
Mean percent remaining mRNA transcript at siRNA concentration/in cell type 30 nM/HepG2: 127%

AD-9696: PCSK9 siRNA (sense mCmUrGmCmCrGrGrGmCmCmCrAmCrArAmCrGmCmUdT*dT; antisense rArGrCrGrUrUrGrUrGrGrGrCrCrCrGrGmCrArGdT*dT)
Mean percent remaining mRNA transcript at siRNA concentration/in cell type 30 nM/HepG2: 77%

AD-9650: PCSK9 siRNA (sense rGmCmUrGrGmUrGmCmUrArGmCmCmUmUrGmCrGmUdT*dT; antisense rArCrGmCrArArGrGrCmUrArGmCrArCmCrArGrCdT*dT)
Mean percent remaining mRNA transcript at siRNA concentration/in cell type 3 nM/HepG2: 90%
Mean percent remaining mRNA transcript at siRNA concentration/in cell type 30 nM/HepG2: 91%

AD-9514: PCSK9 siRNA (sense rGrUrArCrCrGrGrGrCrGrGrArUrGrArArUrArCdT*dT; antisense rGrUrArUrUrCrArUrCrCrGrCrCrCrGrGrUrArCdT*dT)
Mean percent remaining mRNA transcript at siRNA concentration/in cell type 30 nM/HepG2: 57%

AD-9749: PCSK9 siRNA (sense rGmUmCrArGmCmUmCmCrArGrGmCrGrGmUmCmCmUdT*dT; antisense rArGrGrArCrCrGrCrCrUrGrGrArGrCrUrGrArCdT*dT)
Mean percent remaining mRNA transcript at siRNA concentration/in cell type 30 nM/HepG2: 105%

AD-9561: PCSK9 siRNA (sense rGrArCrArCrCrArGrCrArUrArCrArGrArGrUrGdT*dT; antisense rCrArCrUrCrUrGrUrArUrGrCrUrGrGrUrGrUrCdT*dT)
Mean percent remaining mRNA transcript at siRNA concentration/in cell type 30 nM/HepG2: 64%

AD-9569: PCSK9 siRNA (sense rArGrCrUrCrCrUrGrCrArCrArGrUrCrCrUrCrCdT*dT; antisense rGrGrArGrGrArCrUrGrUrGrCrArGrGrArGrCrUdT*dT)
Mean percent remaining mRNA transcript at siRNA concentration/in cell type 30 nM/HepG2: 112%

AD-9573: PCSK9 siRNA (sense rArUrGrGrUrCrArCrCrGrArCrUrUrCrGrArGrAdT*dT; antisense rUrCrUrCrGrArArGrUrCrGrGrUrGrArCrCrArUdT*dT)
IC50: 1.6 nM
Mean percent remaining mRNA transcript at siRNA concentration/in cell type 3 nM/HepG2: 42%
Mean percent remaining mRNA transcript at siRNA concentration/in cell type 30 nM/HepG2: 36%

AD-9519: PCSK9 siRNA (sense rCrCrCrArGrCrCrArGrGrArUrUrCrCrGrCrGrCdT*dT; antisense rGrCrGrCrGrGrArArUrCrCrUrGrGrCrUrGrGrGdT*dT)
Mean percent remaining mRNA transcript at siRNA concentration/in cell type 30 nM/HepG2: 78%

AD-9663: PCSK9 siRNA (sense rAmCrGrGmUrAmCmCrGrGrGmCrGrGrAmUrGrArAdT*dT; antisense rUrUmCrArUrCrCrGrCrCrCrGrGmUrArCrCrGrUdT*dT)
Mean percent remaining mRNA transcript at siRNA concentration/in cell type 30 nM/HepG2: 102%

AD-9656: PCSK9 siRNA (sense rAmCmCrGrGrGmCrGrGrAmUrGrArAmUrAmCmCrAdT*dT; antisense rUrGrGmUrArUrUmCrArUrCrCrGrCrCrCrGrGrUdT*dT)
Mean percent remaining mRNA transcript at siRNA concentration/in cell type 30 nM/HepG2: 77%

AD-9527: PCSK9 siRNA (sense rGrCrCrArArCrCrCrGrCrUrCrCrArCrUrArCrCdT*dT; antisense rGrGrUrArGrUrGrGrArGrCrGrGrGrUrUrGrGrCdT*dT)
Mean percent remaining mRNA transcript at siRNA concentration/in cell type 30 nM/HepG2: 45%

AD-9526: PCSK9 siRNA (sense rUrCrCrCrArGrCrCrArGrGrArUrUrCrCrGrCrGdT*dT; antisense rCrGrCrGrGrArArUrCrCrUrGrGrCrUrGrGrGrAdT*dT)
Mean percent remaining mRNA transcript at siRNA concentration/in cell type 30 nM/HepG2: 89%
Mean percent remaining mRNA transcript at siRNA concentration/in cell type 100 nM/HepG2: 74%

AD-9643: PCSK9 siRNA (sense GGAGGuGuAucuccuAGAcTsT; antisense GUCuAGGAGAuAcACCUCCTsT; as printed in the source, key not given here)
Mean percent remaining mRNA transcript at siRNA concentration/in cell type 30 nM/HepG2: 40%

AD-9557: PCSK9 siRNA (sense rCrCrArCrCrGrGrGrArArArUrCrGrArGrGrGrCdT*dT; antisense rGrCrCrCrUrCrGrArUrUrUrCrCrCrGrGrUrGrGdT*dT)
Mean percent remaining mRNA transcript at siRNA concentration/in cell type 30 nM/HepG2: 96%
Mean percent remaining mRNA transcript at siRNA concentration/in cell type 100 nM/HepG2: 75%

AD-9637: PCSK9 siRNA (sense rGrArGrGrGrCrArGrGrGrUrCrArUrGrGrUrCrAdT*dT; antisense rUrGrArCrCrArUrGrArCrCrCrUrGrCrCrCrUrCdT*dT)
Mean percent remaining mRNA transcript at siRNA concentration/in cell type 30 nM/HepG2: 83%
Mean percent remaining mRNA transcript at siRNA concentration/in cell type 100 nM/HepG2: 56%

AD-9743: PCSK9 siRNA (sense rAmUrGmCmUrGmUmCmUrGmCmCrGrArGmCmCrGrGdT*dT; antisense rCrCrGrGrCrUrCrGrGmCrArGrAmCrArGmCrArUdT*dT)
Mean percent remaining mRNA transcript at siRNA concentration/in cell type 30 nM/HepG2: 104%

AD-9697: PCSK9 siRNA (sense rGmCmCrArGrGmUrGmCmUrGmCmCmUrGmCmUrAmCdT*dT; antisense rGmUrArGmCrArGrGmCrArGmCrArCrCrUrGrGrCdT*dT)
Mean percent remaining mRNA transcript at siRNA concentration/in cell type 3 nM/HepG2: 89%
Mean percent remaining mRNA transcript at siRNA concentration/in cell type 30 nM/HepG2: 74%

AD-9531: PCSK9 siRNA (sense rArArArUrCrGrArGrGrGrCrArGrGrGrUrCrArUdT*dT; antisense rArUrGrArCrCrCrUrGrCrCrCrUrCrGrArUrUrUdT*dT)
IC50: 0.53 nM
Mean percent remaining mRNA transcript at siRNA concentration/in cell type 3 nM/HepG2: 32%
Mean percent remaining mRNA transcript at siRNA concentration/in cell type 30 nM/HepG2: 31%

AD-9748: PCSK9 siRNA (sense mCmUrGmUmCmCmCmUmCmCmUmUrGrArGmCrAmCmCdT*dT; antisense rGrGrUrGrCrUmCrArArGrGrArGrGrGrAmCrArGdT*dT)
Mean percent remaining mRNA transcript at siRNA concentration/in cell type 30 nM/HepG2: 103%

AD-9711: PCSK9 siRNA (sense mCrGrGmCrArAmCmUmUmCmCrGrGrGrAmCrGrAmUdT*dT; antisense rArUrCrGrUrCrCrCrGrGrArArGrUrUrGrCrCrGdT*dT)
Mean percent remaining mRNA transcript at siRNA concentration/in cell type 30 nM/HepG2: 122%

AD-9565: PCSK9 siRNA (sense rUrArCrUrCrUrGrCrUrCrUrArUrGrCrCrArGrGdT*dT; antisense rCrCrUrGrGrCrArUrArGrArGrCrArGrArGrUrAdT*dT)
Mean percent remaining mRNA transcript at siRNA concentration/in cell type 30 nM/HepG2: 74%

AD-9758: PCSK9 siRNA (sense mCrArAmCmUmUmUrGrGmCmCrGmCmUrGmUrGmUrGdT*dT; antisense mCrAmCrAmCrArGrCrGrGrCmCrArArArGrUrUrGdT*dT)
Mean percent remaining mRNA transcript at siRNA concentration/in cell type 30 nM/HepG2: 96%

AD-9550: PCSK9 siRNA (sense rGrArGrGrGrUrGrUrCrUrArCrGrCrCrArUrUrGdT*dT; antisense rCrArArUrGrGrCrGrUrArGrArCrArCrCrCrUrCdT*dT)
Mean percent remaining mRNA transcript at siRNA concentration/in cell type 30 nM/HepG2: 36%

AD-9624: PCSK9 siRNA (sense rCrGrUrCrArGrCrUrCrCrArGrGrCrGrGrUrCrCdT*dT; antisense rGrGrArCrCrGrCrCrUrGrGrArGrCrUrGrArCrGdT*dT)
Mean percent remaining mRNA transcript at siRNA concentration/in cell type 30 nM/HepG2: 94%

AD-9521: PCSK9 siRNA (sense rCrUrCrCrUrArGrArCrArCrCrArGrCrArUrArCdT*dT; antisense rGrUrArUrGrCrUrGrGrUrGrUrCrUrArGrGrArGdT*dT)
Mean percent remaining mRNA transcript at siRNA concentration/in cell type 30 nM/HepG2: 50%

AD-9591: PCSK9 siRNA (sense rArCrUrGrUrCrCrCrUrCrCrUrUrGrArGrCrArCdT*dT; antisense rGrUrGrCrUrCrArArGrGrArGrGrGrArCrArGrUdT*dT)
Mean percent remaining mRNA transcript at siRNA concentration/in cell type 30 nM/HepG2: 95%
Mean percent remaining mRNA transcript at siRNA concentration/in cell type 100 nM/HepG2: 75%

AD-9669: PCSK9 siRNA (sense mCrGmCrGmUrGmCmUmCrArAmCmUrGmCmCrArArGdT*dT; antisense rCrUrUrGrGmCrArGrUrUrGrArGmCrArCrGrCrGdT*dT)
Mean percent remaining mRNA transcript at siRNA concentration/in cell type 30 nM/HepG2: 97%

AD-9553: PCSK9 siRNA (sense rUrCrUrArGrArCrCrUrGrUrUrUrUrGrCrUrUrUdT*dT; antisense rArArArGrCrArArArArCrArGrGrUrCrUrArGrAdT*dT)
IC50: 0.02 nM
Mean percent remaining mRNA transcript at siRNA concentration/in cell type 3 nM/HepG2: 22%
Mean percent remaining mRNA transcript at siRNA concentration/in cell type 30 nM/HepG2: 27%

AD-9600: PCSK9 siRNA (sense rGrUrCrGrUrGrCrUrGrGrUrCrArCrCrGrCrUrGdT*dT; antisense rCrArGrCrGrGrUrGrArCrCrArGrCrArCrGrArCdT*dT)
Mean percent remaining mRNA transcript at siRNA concentration/in cell type 30 nM/HepG2: 112%
